Measured values published in patent US9296723B2, “NAMPT inhibitors” (AbbVie Inc., priority 2012, dated 2016).

Assays:
[1] = biological target: T1, NAMPT (Homo sapiens, UniProt P43490); assay: TR-FRET Binding Assay of NAMPT with PRPP; conditions: 2 nM NAMPT, 2 nM probe, 200 µM PRPP and 2.5 mM ATP, equilibrated 16 hours
Procedure, shortened: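 Substrates present: PRPP at 200 µM and ATP at 2.5 mM, final, alongside 2 nM enzyme, 2 nM tracer and 1 nM terbium anti-His donor in 2% DMSO. A 16-hour equilibration preceded the time-resolved FRET read, allowing compounds to be enzymatically modified.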

[2] = system: PC3 cells; assay: NAMPT Cell Proliferation Assay (Cell Titer Glo); type: cell-based; conditions: Homo sapiens, PC-3, 120 h, incubated 5 days, cell viability
Procedure, shortened: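 Viability measured by Cell Titer Glo luminescence after 5-day exposure of attached PC3 cells to compound, dosed as 10-fold serial dilutions ([…]) in RPMI/10% FBS at 37 °C and 5% CO2. Percent inhibition fitted to sigmoidal dose-response curves for IC50.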

[3] = biological target: T1, NAMPT; assay: Time-Resolved Fluorescence Resonance Energy Transfer (TR-FRET) Binding Assay of NAMPT; conditions: 6.8 nM NAMPT, 200 nM probe, equilibrated 3 hours, no substrates
Procedure, shortened: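 IC50s come from four-parameter logistic fits of control-normalized Em520/Em495 TR-FRET ratios (Ex 337 nm) against compound concentration. Before reading, enzyme, probe, antibody and compound equilibrated for 3 h at room temperature.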

T1 sequence (P43490 whole entry): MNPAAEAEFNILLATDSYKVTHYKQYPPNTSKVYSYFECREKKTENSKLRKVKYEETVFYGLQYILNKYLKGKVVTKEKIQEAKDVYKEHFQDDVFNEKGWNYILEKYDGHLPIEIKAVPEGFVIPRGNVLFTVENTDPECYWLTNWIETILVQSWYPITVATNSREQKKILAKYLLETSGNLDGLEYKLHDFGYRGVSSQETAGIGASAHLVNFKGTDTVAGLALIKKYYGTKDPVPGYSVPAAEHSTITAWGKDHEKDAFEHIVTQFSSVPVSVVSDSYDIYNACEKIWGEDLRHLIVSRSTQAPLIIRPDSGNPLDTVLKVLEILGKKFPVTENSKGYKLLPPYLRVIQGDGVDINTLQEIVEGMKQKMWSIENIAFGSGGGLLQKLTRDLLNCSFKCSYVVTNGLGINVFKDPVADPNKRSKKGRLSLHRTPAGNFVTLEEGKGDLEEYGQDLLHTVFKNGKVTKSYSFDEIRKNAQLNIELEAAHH

SMILES | IC50 [1] | IC50 [2] | IC50 [3]
O=C(CC1CCCC1)N1CC[C@@H](Oc2ccc(NC(=O)N3CC(c4cccnc4)C3)cc2)C1 [Example 300, N-(4-{[(3R)-1-(cyclopentylacetyl)pyrrolidin-3-yl]oxy}phenyl)-3-(pyridin-3-yl)azetidine-1-carboxamide] | 0.341 nM | 17.1 nM | 52.6 nM
CC1CC1C(=O)N1CC[C@@H](Oc2ccc(NC(=O)N3CC(c4cccnc4)C3)cc2)C1 (stereo partly drawn) [Example 301, N-[4-({(3R)-1-[(2-methylcyclopropyl)carbonyl]pyrrolidin-3-yl}oxy)phenyl]-3-(pyridin-3-yl)azetidine-1-carboxamide] | 0.243 nM | 21.9 nM | 59 nM
O=C(CN1CCOCC1)N1CC[C@@H](Oc2ccc(NC(=O)N3CC(c4cccnc4)C3)cc2)C1 [Example 302, N-(4-{[(3R)-1-(morpholin-4-ylacetyl)pyrrolidin-3-yl]oxy}phenyl)-3-(pyridin-3-yl)azetidine-1-carboxamide] | 0.393 nM | 141 nM | 337 nM
O=C(CN1CCCC1)N1CC[C@@H](Oc2ccc(NC(=O)N3CC(c4cccnc4)C3)cc2)C1 [Example 304, 3-(pyridin-3-yl)-N-(4-{[(3R)-1-(pyrrolidin-1-ylacetyl)pyrrolidin-3-yl]oxy}phenyl)azetidine-1-carboxamide] | 0.343 nM | 262 nM | 594 nM
O=C1CC[C@H](C(=O)N2CC[C@@H](Oc3ccc(NC(=O)N4CC(c5cccnc5)C4)cc3)C2)N1 [Example 305, N-(4-{[(3R)-1-(5-oxo-D-prolyl)pyrrolidin-3-yl]oxy}phenyl)-3-(pyridin-3-yl)azetidine-1-carboxamide] | 0.211 nM | 1820 nM | 435 nM
Cc1ccsc1C(=O)N1CC[C@@H](Oc2ccc(NC(=O)N3CC(c4cccnc4)C3)cc2)C1 [Example 310, N-[4-({(3R)-1-[(3-methylthiophen-2-yl)carbonyl]pyrrolidin-3-yl]oxy}phenyl)-3-(pyridin-3-yl)azetidine-1-carboxamide] | 0.297 nM | 2.76 nM | 4.54 nM
O=C(CCC(F)(F)F)N1CC[C@@H](Oc2ccc(NC(=O)N3CC(c4cccnc4)C3)cc2)C1 [Example 311, 3-(pyridin-3-yl)-N-(4-{[(3R)-1-(4,4,4-trifluorobutanoyl)pyrrolidin-3-yl]oxy}phenyl)azetidine-1-carboxamide] | 0.592 nM | 47.1 nM | 144 nM
CN1CCN(CC(=O)N2CC[C@@H](Oc3ccc(NC(=O)N4CC(c5cccnc5)C4)cc3)C2)CC1 [Example 312, N-[4-({(3R)-1-[(4-methylpiperazin-1-yl)acetyl]pyrrolidin-3-yl}oxy)phenyl]-3-(pyridin-3-yl)azetidine-1-carboxamide] | 0.29 nM | 211 nM | 311 nM
O=C1CC[C@@H](C(=O)N2CC[C@@H](Oc3ccc(NC(=O)N4CC(c5cccnc5)C4)cc3)C2)N1 [Example 313, N-(4-{[(3R)-1-(5-oxo-L-prolyl)pyrrolidin-3-yl]oxy}phenyl)-3-(pyridin-3-yl)azetidine-1-carboxamide] | 0.187 nM | 4590 nM | 369 nM
CCOCCC(=O)N1CC[C@@H](Oc2ccc(NC(=O)N3CC(c4cccnc4)C3)cc2)C1 [Example 314, N-(4-{[(3R)-1-(3-ethoxypropanoyl)pyrrolidin-3-yl]oxy}phenyl)-3-(pyridin-3-yl)azetidine-1-carboxamide] | 0.178 nM | 83.9 nM | 110 nM
O=C(CC1CCCCC1)N1CC[C@@H](Oc2ccc(NC(=O)N3CC(c4cccnc4)C3)cc2)C1 [Example 317, N-(4-{[(3R)-1-(cyclohexylacetyl)pyrrolidin-3-yl]oxy}phenyl)-3-(pyridin-3-yl)azetidine-1-carboxamide] | 0.207 nM | 55.4 nM | 29.9 nM
CCC(=O)N1CC[C@@H](Oc2ccc(NC(=O)N3CC(c4cccnc4)C3)cc2)C1 [Example 319, N-(4-{[(3R)-1-propanoylpyrrolidin-3-yl]oxy}phenyl)-3-(pyridin-3-yl)azetidine-1-carboxamide] | 0.426 nM | 30.7 nM | 70.6 nM
COCCOCC(=O)N1CC[C@@H](Oc2ccc(NC(=O)N3CC(c4cccnc4)C3)cc2)C1 [Example 320, N-[4-({(3R)-1-[(2-methoxyethoxy)acetyl]pyrrolidin-3-yl}oxy)phenyl]-3-(pyridin-3-yl)azetidine-1-carboxamide] | 0.407 nM | 155 nM | 208 nM
O=C(Nc1ccc(O[C@@H]2CCN(C(=O)c3ccco3)C2)cc1)N1CC(c2cccnc2)C1 [Example 326, N-(4-{[(3R)-1-(furan-2-ylcarbonyl)pyrrolidin-3-yl]oxy}phenyl)-3-(pyridin-3-yl)azetidine-1-carboxamide] | 0.294 nM | 16.5 nM | 32.2 nM
CCOCC(=O)N1CC[C@@H](Oc2ccc(NC(=O)N3CC(c4cccnc4)C3)cc2)C1 [Example 328, N-(4-{[(3R)-1-(ethoxyacetyl)pyrrolidin-3-yl]oxy}phenyl)-3-(pyridin-3-yl)azetidine-1-carboxamide] | 0.344 nM | 52.7 nM | 159 nM

More lines, now with the values ahead:

IC50 [1] | IC50 [2] | IC50 [3] | SMILES
0.451 nM | 14.6 nM | 64.9 nM | O=C(CC1CC2CCC1C2)N1CCC(Oc2ccc(NC(=O)N3CC(c4cccnc4)C3)cc2)C1 (stereo not drawn) [Example 299, N-(4-{[1-(bicyclo[2.2.1]hept-2-ylacetyl)pyrrolidin-3-yl]oxy}phenyl)-3-(pyridin-3-yl)azetidine-1-carboxamide]
0.595 nM | 13.5 nM | 40.5 nM | O=C(Nc1ccc(O[C@@H]2CCN(C(=O)c3ccoc3)C2)cc1)N1CC(c2cccnc2)C1 [Example 303, N-(4-{[(3R)-1-(furan-3-ylcarbonyl)pyrrolidin-3-yl]oxy}phenyl)-3-(pyridin-3-yl)azetidine-1-carboxamide]
0.197 nM | 9.87 nM | 24.3 nM | O=C(Nc1ccc(O[C@@H]2CCN(C(=O)c3nccs3)C2)cc1)N1CC(c2cccnc2)C1 [Example 307, 3-(pyridin-3-yl)-N-(4-{[(3R)-1-(1,3-thiazol-2-ylcarbonyl)pyrrolidin-3-yl]oxy}phenyl)azetidine-1-carboxamide]
0.293 nM | 9.61 nM | 24.2 nM | O=C(Nc1ccc(O[C@@H]2CCN(C(=O)c3ccsc3)C2)cc1)N1CC(c2cccnc2)C1 [Example 308, 3-(pyridin-3-yl)-N-(4-{[(3R)-1-(thiophen-3-ylcarbonyl)pyrrolidin-3-yl]oxy}phenyl)azetidine-1-carboxamide]
0.262 nM | 11.1 nM | 32.8 nM | CC1(C(=O)N2CC[C@@H](Oc3ccc(NC(=O)N4CC(c5cccnc5)C4)cc3)C2)CC1 [Example 309, N-[4-({(3R)-1-[(1-methylcyclopropyl)carbonyl]pyrrolidin-3-yl}oxy)phenyl]-3-(pyridin-3-yl)azetidine-1-carboxamide]
0.419 nM | 156 nM | 125 nM | CC(=O)N[C@@H](CC(C)C)C(=O)N1CC[C@@H](Oc2ccc(NC(=O)N3CC(c4cccnc4)C3)cc2)C1 [Example 318, N-(4-{[(3R)-1-(N-acetyl-L-leucyl)pyrrolidin-3-yl]oxy}phenyl)-3-(pyridin-3-yl)azetidine-1-carboxamide]
0.246 nM | 119 nM | 176 nM | O=C(CCN1CCOCC1)N1CC[C@@H](Oc2ccc(NC(=O)N3CC(c4cccnc4)C3)cc2)C1 [Example 321, N-[4-({(3R)-1-[3-(morpholin-4-yl)propanoyl]pyrrolidin-3-yl}oxy)phenyl]-3-(pyridin-3-yl)azetidine-1-carboxamide]
0.194 nM | 51 nM | 41.4 nM | Cc1ccc(C(=O)N2CC[C@@H](Oc3ccc(NC(=O)N4CC(c5cccnc5)C4)cc3)C2)s1 [Example 323, N-[4-({(3R)-1-[(5-methylthiophen-2-yl)carbonyl]pyrrolidin-3-yl}oxy)phenyl]-3-(pyridin-3-yl)azetidine-1-carboxamide]
0.36 nM | 6.24 nM | 20.7 nM | O=C(Nc1ccc(O[C@@H]2CCN(C(=O)c3cccs3)C2)cc1)N1CC(c2cccnc2)C1 [Example 324, 3-(pyridin-3-yl)-N-(4-{[(3R)-1-(thiophen-2-ylcarbonyl)pyrrolidin-3-yl]oxy}phenyl)azetidine-1-carboxamide]
0.362 nM | 11.3 nM | 18.8 nM | Cn1cccc1C(=O)N1CC[C@@H](Oc2ccc(NC(=O)N3CC(c4cccnc4)C3)cc2)C1 [Example 325, N-[4-({(3R)-1-[(1-methyl-1H-pyrrol-2-yl)carbonyl]pyrrolidin-3-yl}oxy)phenyl]-3-(pyridin-3-yl)azetidine-1-carboxamide]
0.276 nM | 14.5 nM | 30.4 nM | CC(C)(C)CC(=O)N1CC[C@@H](Oc2ccc(NC(=O)N3CC(c4cccnc4)C3)cc2)C1 [Example 329, N-(4-{[(3R)-1-(3,3-dimethylbutanoyl)pyrrolidin-3-yl]oxy}phenyl)-3-(pyridin-3-yl)azetidine-1-carboxamide]
0.364 nM | 12.3 nM | 21.9 nM | CCC(C)(C)C(=O)N1CC[C@@H](Oc2ccc(NC(=O)N3CC(c4cccnc4)C3)cc2)C1 [Example 330, N-(4-{[(3R)-1-(2,2-dimethylbutanoyl)pyrrolidin-3-yl]oxy}phenyl)-3-(pyridin-3-yl)azetidine-1-carboxamide]
